We go through 13 molecules from publication PMC9594048, “Targeting a Multidrug-Resistant Pathogen: First Generation Antagonists of Burkholderia cenocepacia’s BC2L-C Lectin” (ACS Chemical Biology, 2022).

What is called Kd is a measure of binding affinity in units of concentration.

Data set [1] deals with T1, BC2L-C-Nt (rBC2L-CN2) (Burkholderia cenocepacia, UniProt B4EH86). The data set can be described thus: Isothermal titration calorimetry (ITC). Type of data set: binding. As to conditions: for Kd: 25 °C. The protocol: All experiments were performed at 25 °C with an ITC200 isothermal titration calorimeter (Microcal-Malvern Panalytical, Orsay, France). The protein rBC2L-CN2 and its ligands were dissolved in a buffer composed of 20 mM Tris HCl pH 7.0 and 100 mM NaCl. The 200 μL sample cell containing rBC2L-CN (concentrations ranging from 200 to 400 μM) was subjected to injections of ligand solution: 20 to 39 injections of 1 μL or 70 injections of 0.5 μL (5 to 50 mM, chosen depending on the ligand) at intervals of 100, 120, or 200 s, while stirring at 850 rpm. Control experiments were performed by repeating the same protocol, but injecting the ligand into buffer solution. The supplied software Origin 7 or MicroCal PEAQ-ITC was used to fit the experimental data to a theoretical titration curve allowing the determination of affinity.
3. Ligand evaluation materials and methods
3.1. Isothermal Titration Calorimetry
All experiments were performed at 25 °C with an ITC200 isothermal titration calorimeter (Microcal - Malvern Panalytical, Orsay, France). The protein rBC2L -CN2 and its ligands were dissolved in a buffer composed of 20 mM Tris HCl pH 7.0 and 100 mM NaCl. The 200 µL sample cell containing rBC2L-CN (concentrations ranging from 200 to 400 µM) was subjected to injections of ligand solution: 20 to 39 injections of 1 µL or 70 injections of 0.5 µL (5 to 50 mM, chosen depending on the ligand) at intervals of 100, 120 or 200s while stirring at 850 rpm. Control experiments were performed by repeating the same protocol, but injecting the ligand into buffer solution. The supplied software Origin 7 or MicroCal PEAQ-ITC was used to fit the experimental data to a t heoretical titration curve allowing the determination of affinity (i.e., association constant, K a), binding enthalpy (∆H), and stoichiometry (n). Values for free energy change (∆G) and entropy contributions (T∆S) […]
1.K-1. For experiments in ligand excess, the stoichiometry was fixed to 1. […]
(In general: Isothermal titration calorimetry measures the heat released or taken up as one component is titrated into another.)

Data set [2] addresses T1, BC2L-C-Nt (rBC2L-CN2). In words: Surface plasmon resonance (SPR) affinity on BC2L-C-Nt-coated chip. As to conditions: 25 °C, rBC2L-CN2 immobilized on CM5 chip, multi-cycle affinity; SD from duplicates. Type of data set: binding. The protocol:
Experiments were performed on a BIACORE X100 instrument (GE Healthcare) at 25 °C in running buffer 10 mM HEPES pH 7.4, 150 mM NaCl, and 0.05% Tween 20, adjusted to include 8% DMSO when required. rBC2L-CN2 was immobilized onto CM5 chips (BIACORE) following the amine coupling procedure detailed in the Supporting Information. The analytes were dissolved in the running buffer at increasing concentrations (range: 3.28–3500 μM) and subjected to multi-cycle affinity studies (300 s association, 300 s dissociation, flow rate 5 μL/min). Injections of compounds at increasing concentrations onto the immobilized rBC2L-CN2 were followed by regeneration of the surface: 10 mM fucose in running buffer and then running buffer at 5 μL/min (100 and 150 s, respectively) after each analyte association/dissociation. For the higher concentrations, regeneration was secured by performing one or more runs replacing analyte by running buffer. Duplicates were performed for all ligands. Binding affinity (KD) was measured after subtracting the channel 1 reference (no immobilized protein) and subtracting a blank injection (running buffer—zero analyte concentration). Data evaluation and curve fitting were performed using the provided BIACORE X100 evaluation software (version 2.0). The protein-coated chip was stored at 4 °C in running buffer and was functional up to 8 weeks after fabrication, as proven by experimentation. […]
3.2. Surface plasmon Resonance
Experiments were performed on a BIACORE X100 instrument (GE Healthcare) at 25 °C in running buffer 10 mM HEPES pH 7.4, 150 mM NaCl and 0.05% Tween 20, adjusted to include 8% DMSO when indicated. rBC2L-CN2 was immobilized onto CM5 chips (BIACORE) following the amine […]
• Activation of the chip by three injections of a NHS/EDC mixture at 10 μL/min for 540s, until a minimum of 300 RU was observed on both channels.
• Injection of rBC2L-CN2 (0.5 mg/mL) dissolved in 10 mM sodium acetate pH 4.5 onto channel 2 (contact time of 540s, flow rate of 10 μL/min), until a minimum of 7000 RU was […]
• Inactivation of both channels by injecting a 1M ethanolamine (pH 8.5) solution at 5 μL/min for 1080s, achieving over 400 and 7000 RU for channel 1 and 2, respectively.
The analytes were dissolved in the running buffer at increasing concentrations (range: 3.28 − 3500 μM) and subjected to multi-cycle affinity studies (300s association, 300s dissociation, flow rate 5 μL/min). Injections of compounds at increasing concentrations onto the immobilized rBC2L-CN2 were followed by regeneration of the surface: 10 mM fucose in running buffer, then running buffer at 5 μL/min (100s and 150s, respectively) after each analyte association/dissociation. For the higher concentrations, regeneration was secured by performing one or more runs replacing analyte by running buffer. Duplicates were performed for all ligands. Binding affinity (KD) was measured after subtracting the channel 1 reference (no immobilized protein) and subtracting of a blank injection (running buffer - zero analyte concentration). Data evaluation and curve fitting was performed using the provided BIACORE X100 evaluation software (version 2.0). […]

Data set [3] can be described thus: Solubility (qualitative remark). As to conditions: prevented affinity evaluation by ITC. Type of data set: physicochemical.
Data set [4] concerns the target T1, BC2L-C-Nt (rBC2L-CN2). In words: biochemical. Type of data set: binding. As to conditions: for Tonset / Tm1 / Tm2: protein 14.3 μM, ligand 143 μM; for Tonset: SD from duplicates; for Tm1: first thermal event, protein alone 82.2 °C; for Tm2: main thermal event, protein alone 84.5 °C; for ΔTm2: shift of main thermal event vs protein alone. The procedure:
Experiments were performed on a Microcal PEAQ-DSC instrument (Malvern Panalytical, Orsay, France). A buffer composed of 20 mM Tris HCl pH 7.0 and 100 mM NaCl was used to dilute the protein rBC2L-CN2 and its ligands to concentrations 14.3 and 143 μM, respectively. Samples of 250 μL were loaded, while the reference cell was filled with the matching buffer (aforementioned buffer, ligands when relevant). […] The data were acquired on “Low” feedback mode. The supplied software MicroCal PEAQ-DSC Software 1.53 was used to fit the experimental data. […] The profile obtained was fitted with a “NonTwoState” model, accounting for two thermal events. Each experiment was performed in duplicates, and their averages were calculated by the software.
3. […]
3.3. Differential Scanning Calorimetry
Experiments were performed on a Microcal PEAQ-DSC instrument (Malvern Panalytical, Orsay, […]

[5] abbreviates: 20 mM Tris HCl pH 7.0, 100 mM NaCl, SD from duplicates.

SMILES strings stand for the structures. Like-named read-outs stand apart in the source and are kept apart here.

T1 sequence (B4EH86 entry or part of it): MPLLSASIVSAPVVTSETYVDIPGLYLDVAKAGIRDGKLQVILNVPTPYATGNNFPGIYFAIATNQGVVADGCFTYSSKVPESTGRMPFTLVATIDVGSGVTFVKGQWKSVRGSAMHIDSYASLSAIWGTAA

For `C[C@@H]1O[C@H](NC(=O)c2ccc(C(C)(C)CN)cc2)[C@@H](O)[C@H](O)[C@@H]1O` [8a], the Kd at BC2L-C-Nt (rBC2L-CN2) [1] (setting [5]) worked out at 2.55 ± 1 mM; on BC2L-C-Nt (rBC2L-CN2) [2], 0.94 ± 0.01 mM.
For `CNCc1ccc(C(=O)N[C@H]2O[C@@H](C)[C@@H](O)[C@@H](O)[C@@H]2O)cc1` [8b], in that order: 3.66 ± 0.21 mM and 1.57 ± 0.06 mM.
On to `C[C@@H]1O[C@H](NC(=O)c2ccc(-c3cccc(N)c3)o2)[C@@H](O)[C@H](O)[C@@H]1O` [8c], for which the solubility entry in data set [3] is “very low and poor”. Besides, on BC2L-C-Nt (rBC2L-CN2) [2], the Kd was determined as 2.36 ± 0.97 mM.
For `C[C@@H]1O[C@H](NC(=O)c2ccc3cc[nH]c3c2)[C@@H](O)[C@H](O)[C@@H]1O` [8d], the Kd at BC2L-C-Nt (rBC2L-CN2) [1] (setting [5]) is 3.49 ± 1.3 mM; at BC2L-C-Nt (rBC2L-CN2) [2], 3.42 ± 0.22 mM.
On to `C[C@@H]1O[C@H](NC(=O)c2ccc3[nH]ccc3c2)[C@@H](O)[C@H](O)[C@@H]1O` [8e], for which the “activity compared with methyl-fucoside 13 (ITC)” value on BC2L-C-Nt (rBC2L-CN2) [1] (ITC KD compared with […]) is listed as “better activity than methyl-fucoside 13”. The same molecule came in with a Kd at BC2L-C-Nt (rBC2L-CN2) [2] of 1.42 ± 0.02 mM.
Take `C[C@@H]1O[C@H](n2cc(-c3ccc(C(C)(C)CN)cc3)nn2)[C@@H](O)[C@H](O)[C@@H]1O` [12a]: the Kd at BC2L-C-Nt (rBC2L-CN2) [1] (setting [5]) amounted to 2.49 ± 0.06 mM; at BC2L-C-Nt (rBC2L-CN2) [2], 1.19 ± 0.05 mM.
For `CNCc1ccc(-c2cn([C@H]3O[C@@H](C)[C@@H](O)[C@@H](O)[C@@H]3O)nn2)cc1` [12b], in that order: 6.25 ± 0.72 mM and 2.45 ± 0.02 mM.
For the molecule `C[C@@H]1O[C@H](C#Cc2ccc(C(C)(C)CN)cc2)[C@@H](O)[C@H](O)[C@@H]1O` [22a], the Tonset at BC2L-C-Nt (rBC2L-CN2) [4] came to 73.29 ± 1.54 °C. On BC2L-C-Nt (rBC2L-CN2) [4], the Tm1 is 82.43 ± 0.02 °C. Also, the Tm2 at BC2L-C-Nt (rBC2L-CN2) [4] worked out at 84.71 ± 0.01 °C. Further, the results for the ΔTm at 143 µM at BC2L-C-Nt (rBC2L-CN2) [4] (read-out: ΔTm1) and on BC2L-C-Nt (rBC2L-CN2) [4] (read-out: ΔTm2) were 0.21 °C and 0.17 °C, respectively. Moreover, the Kd worked out at 0.281 mM on BC2L-C-Nt (rBC2L-CN2) [1], 0.28 ± 0.01 mM on BC2L-C-Nt (rBC2L-CN2) [1] (setting [5]) and 1.33 ± 0.15 mM on BC2L-C-Nt (rBC2L-CN2) [2]. For the same molecule, the “affinity increase from αMeFuc (ITC)” value at BC2L-C-Nt (rBC2L-CN2) [1] (relative to […]) is ~10 fold.
With `CNCc1ccc(C#C[C@H]2O[C@@H](C)[C@@H](O)[C@@H](O)[C@@H]2O)cc1` [22b], the Kd on BC2L-C-Nt (rBC2L-CN2) [1] (setting [5]) stood at 1.24 ± 0.07 mM; at BC2L-C-Nt (rBC2L-CN2) [2] it was 7.85 ± 3.39 mM.
For the molecule `C[C@@H]1O[C@H](C#CC(O)c2ccc3ncccc3c2)[C@@H](O)[C@H](O)[C@@H]1O` (stereo partly shown) [22f], the Kd on BC2L-C-Nt (rBC2L-CN2) [1] was determined as 0.49 mM; at BC2L-C-Nt (rBC2L-CN2) [2], 0.301 ± 0.001 mM.
As to `C[C@@H]1O[C@H](C#Cc2ccc(CNC(=N)N)cc2)[C@@H](O)[C@H](O)[C@@H]1O` [22g], the results for the Kd on BC2L-C-Nt (rBC2L-CN2) [1] (setting [5]) and at BC2L-C-Nt (rBC2L-CN2) [2] were 0.91 ± 0.03 mM and 1.3 ± 0.6 mM, respectively.
For `CNCc1ccc(/C=C/[C@H]2O[C@@H](C)[C@@H](O)[C@@H](O)[C@@H]2O)cc1` [28b], in that order: 3.37 ± 0.4 mM and 1.02 ± 0.02 mM.
Turning to `CC(=O)N[C@H]1C(O)O[C@H](CO)[C@@H](O)[C@@H]1O[C@@H]1O[C@H](CO)[C@H](O)[C@H](O)[C@H]1O[C@@H]1O[C@@H](C)[C@@H](O)[C@@H](O)[C@@H]1O` (stereo partly shown) [H-type 1 trisaccharide, Fucα(1–2)Galβ(1–3)GlcNAc], on BC2L-C-Nt (rBC2L-CN2) [4], the Tonset was determined as 74.09 ± 0.26 °C, the Tm1 was determined as 82.65 ± 0.01 °C, the Tm2 came to 84.92 ± 0.01 °C and the ΔTm2 entry is “+0.38 °C”. Besides, the ΔTm1 at BC2L-C-Nt (rBC2L-CN2) [4] (shift of first thermal event vs protein alone) amounted to 0.44 °C. At BC2L-C-Nt (rBC2L-CN2) [4] (listed as H-type 1), the ΔTm2 came out at 0.38 ± 0.01 °C.
